Data as given in ChEMBL document CHEMBL1151275, “An anthraquinone with potent quinone reductase-inducing activity and other constituents of the fruits of Morinda citrifolia (noni)” (J Nat Prod, 2005).

Columns and labels:
[1] = Cytotoxicity against mouse Hepa-1c1c7 cells after 48 hrs by crystal violet staining; format: cell-based; settings: Hepa-1c1c7, 48 h
[2] = Chemoprevention index, ratio of IC50 for mouse Hepa-1c1c7 cells to drug level required to double specific NADPH:quinone reductase activity in mouse Hepa-1c1c7 cells; format: functional

Structure (SMILES)	IC50 [1] [µM]	Ratio [2]
COc1c(O)cc2c(c1O)C(=O)c1ccc(O)cc1C2=O	> 69.9	>7770
COc1ccc(O)c2c1C(=O)c1ccc(CO)c(O)c1C2=O	> 66.6	>39.9
C[S@+]([O-])CCCCN=C=S [L-SULFORAPHANE]	9.77	28.7
